Experimental data reported in patent publication US20260015376A1, “CONTINUOUS FLOW METHODS FOR PRODUCING MANNOSE-1-PHOSPHATE, POLYMORPHS OF MANNOSE-1-PHOSPHATE, AND COMPOSITIONS AND USES RELATED THERETO” (Glycomine, Inc., priority 2022, published 2026).
Entries after “also recorded” stand apart in the source; their conditions may differ.

What was measured:
Type in all cases: physicochemical
[1] = Compression study (hydraulic press, XRPD)
Experimental: About 10 mg of […] Form C was compressed for 5 minutes under 5 MPa or 10 MPa with a hydraulic press. Potential form change and degree of crystallinity were evaluated by XRPD.

[2] = Dry grinding study (XRPD); details: ground manually with mortar and pestle for 3 min
Experimental: About 10 mg of […] Form C was ground manually with a mortar and a pestle for 3 min. Potential form change and degree of crystallinity were evaluated by XRPD.

[3] = Wet granulation simulation (XRPD); details: ethanol as the granulation solvent, dried 10 min at ambient conditions
Experimental: Ethanol was added dropwise to about 10 mg of M1P Form C until the sample was wetted sufficiently. The wet sample was ground gently in a mortar and a pestle. Post granulation, the sample was dried under ambient conditions for 10 min. Potential form change and degree of crystallinity were evaluated by XRPD.

[4] = Water activity experiments to determine relative stability of Forms A, B and C in water/EtOH systems (XRPD)
Experimental: […]. Water activity experiments were conducted at 25° C. in several different water/EtOH systems to determine relative stability of M1P Forms A, B and C under these conditions.
About 5 mg each of M1P Forms A, B, and C were combined and added to 0.2 mL saturated solutions of a water/EtOH system. The resulting suspensions were stirred at 5° C., 25° C., or 50° C. for 4 days or 11 days. After 4 or 11 days, the solids (wet cakes) were isolated by centrifugation filtration and analyzed by XRPD to determine which Form(s) remained.

[5] = Water sorption by dynamic vapor sorption (DVS) at 25° C.
Experimental: Water sorption behavior of […] Form C was investigated using dynamic vapor sorption (DVS) at 25° C. The relative humidity (RH) was increased from 0-80%, with a minimum equilibration time of 60 min and a maximum equilibration time of 360 min.

[6] = 12-month stability, polymorph characterization by XRPD and purity by chromatography; details: −20° C., 25° C./60% RH, 40° C./75% RH, 5° C.
Experimental: […] Form C was produced in accordance with the examples above. XRPD was used on samples taken at 1, 3, 6, 9 and 12 months, and tested under four conditions: • -20° C.±5° C., • 25° C.±2° C. at 60% relative humidity (RH)±5% RH, • 40° C.±2° C. at 75% RH±5% RH and • 5° C.±3° C.

O=P([O-])([O-])O[C@H]1O[C@H](CO)[C@@H](O)[C@H](O)[C@@H]1O.[K+].[K+] [Form C]
form change by XRPD ([1]; compressed for 5 minutes under 5 MPa): no form change was observed
degree of crystallinity by XRPD ([1]; compressed for 5 minutes under 5 MPa and 10 MPa): crystallinity decreased
form change by XRPD ([1]; compressed for 5 minutes under 10 MPa): no form change was observed
degree of crystallinity by XRPD [2]: crystallinity decreased
form change by XRPD [2]: no form change
form change by XRPD [3]: no form change
stability over water activity range [4]: stable over a wide water activity range
form change by XRPD following the DVS experiment ([5]; 80% RH at 25° C.): no form change was observed
H2O absorbed ([5]; DVS, 25° C., 80% RH): 1.9 % (w/w)
hygroscopicity ([5]; DVS, 25° C., RH 0-80%): only slightly hygroscopic; also recorded: low hygroscopicity
% Water absorption ([5]; DVS, 25° C., relative humidity 0%): 0.01%
% Water absorption ([5]; DVS, 25° C., relative humidity 10%): 0.51%
% Water absorption ([5]; DVS, 25° C., relative humidity 20%): 0.59%
% Water absorption ([5]; DVS, 25° C., relative humidity 30%): 0.63%
% Water absorption ([5]; DVS, 25° C., relative humidity 40%): 0.65%
% Water absorption ([5]; DVS, 25° C., relative humidity 50%): 0.69%
% Water absorption ([5]; DVS, 25° C., relative humidity 60%): 0.73%
% Water absorption ([5]; DVS, 25° C., relative humidity 70%): 0.82%
% Water absorption ([5]; DVS, 25° C., relative humidity 80%): 1.93%
changes to the polymorphic form by XRPD ([6]; 1, 3, 6, 9 and 12 months): no observed changes to the polymorphic form
changes in purity by chromatography ([6]; 12-month stability): no substantial changes observed
